From the supplement of paper PMC10307832

Legend:
Test in all cases: relative viability (nuclei count vs DMSO), 5 days (fraction); higher = more cells survive
Pictilisib = compound: CS(=O)(=O)N1CCN(Cc2cc3nc(-c4cccc5[nH]ncc45)nc(N4CCOCC4)c3s2)CC1 [Pictilisib]
Procedure, shortened: (§1)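 Viability was read as treated-well nuclei divided by vehicle-well nuclei, using the median across plates. Lung cancer cell lines in 1536-well plates were kept overnight at 37 °C, pinned with five √10-spaced library-drug doses, and after 5 days were Hoechst-stained, imaged at 4× and counted in MetaXpress. Plates passed only with control CV below 25% and at least one doubling.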

MK-2206 = compound: NC1(c2ccc(-c3nc4ccn5c(=O)[nH]nc5c4cc3-c3ccccc3)cc2)CCC1 [MK-2206]
Procedure, shortened: as §1

Pictilisib + Phenformin = compound: CS(=O)(=O)N1CCN(Cc2cc3nc(-c4cccc5[nH]ncc45)nc(N4CCOCC4)c3s2)CC1 [Pictilisib] + N=C(N)NC(=N)NCCc1ccccc1 [Phenformin] (partner 250 µM)
Procedure, shortened: (§2)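 A single step with final 0.05% Triton X-100, 1% formaldehyde and 1 ug/ml Hoechst fixed the cells and stained nuclei 5 days after treatment. Lung cancer cell lines in 1536-well plates had been treated by pin tool the day after seeding with one drug alone or a fixed anchor-drug dose plus five library-drug doses (not always all listed) in √10 steps, and nuclei were counted on 4× images. Relative viability is the ratio of nuclei in treated wells to nuclei in vehicle wells, taken as the median of duplicate plates.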

MK-2206 + Vorinostat = compound: NC1(c2ccc(-c3nc4ccn5c(=O)[nH]nc5c4cc3-c3ccccc3)cc2)CCC1 [MK-2206] + O=C(CCCCCCC(=O)Nc1ccccc1)NO [Vorinostat] (partner 1 µM)
Procedure, shortened: as §2

Cell Line | relative viability (Pictilisib; 0.02 µM) | relative viability (Pictilisib; 0.06325 µM) | relative viability (Pictilisib; 0.6325 µM) | relative viability (Pictilisib; 1 µM, anchor plate) | relative viability (Pictilisib; 2 µM) | relative viability (MK-2206; 0.01 µM) | relative viability (MK-2206; 0.03162 µM) | relative viability (MK-2206; 0.3162 µM) | relative viability (MK-2206; 1 µM) | relative viability (Pictilisib + Phenformin; first compound 0.02 µM) | relative viability (Pictilisib + Phenformin; first compound 0.06325 µM) | relative viability (Pictilisib + Phenformin; first compound 0.6325 µM) | relative viability (Pictilisib + Phenformin; first compound 2 µM) | relative viability (MK-2206 + Vorinostat; first compound 0.01 µM) | relative viability (MK-2206 + Vorinostat; first compound 0.03162 µM) | relative viability (MK-2206 + Vorinostat; first compound 0.3162 µM) | relative viability (MK-2206 + Vorinostat; first compound 1 µM)
NCI-H661 | 1.02 | 1.05 | 1.03 | 0.424 | 0.672 | 0.997 | 1.02 | 1.03 | 1.01 | 0.302 | 0.282 | 0.269 | 0.216 | 0.759 | 0.737 | 0.767 | 0.681
CAL-12T | 1.12 | 1.12 | 1.03 | 0.475 | 0.589 | 0.939 | 1.06 | 1.07 | 0.953 | 0.612 | 0.578 | 0.467 | 0.239 | 0.672 | 0.8 | 0.748 | 0.768
HARA | 1.05 | 1.13 | 0.846 | 0.401 | 0.555 | 0.972 | 1.08 | 1.08 | 0.832 | 0.454 | 0.469 | 0.37 | 0.244 | 0.391 | 0.539 | 0.455 | 0.59
NCI-H596 | 0.98 | 0.957 | 0.684 | 0.405 | 0.373 | 1.07 | 0.929 | 0.948 | 0.669 | 0.697 | 0.697 | 0.375 | 0.305 | 0.64 | 0.754 | 0.604 | 0.462
LU99A | 1.01 | 0.971 | 0.794 | 0.327 | 0.425 | 1.01 | 1.07 | 0.961 | 1.02 | 0.911 | 0.869 | 0.791 | 0.532 | 0.456 | 0.529 | 0.473 | 0.49
LC-2-ad | 1.05 | 1.07 | 0.619 | 0.496 | 0.594 | 0.969 | 1.05 | 0.994 | 0.876 | 0.593 | 0.636 | 0.464 | 0.323 | 0.663 | 0.72 | 0.753 | 0.665
NCI-H1650 | 1 | 1.01 | 0.809 | 0.598 | 0.532 | 0.854 | 1.01 | 0.883 | 0.946 | 0.492 | 0.318 | 0.247 | 0.176 | 0.532 | 0.612 | 0.656 | 0.519
NCI-H1915 | 1.06 | 1.04 | 0.95 | 0.96 | 0.909 | 1 | 1.06 | 0.967 | 0.95 | 0.392 | 0.367 | 0.365 | 0.361 | 0.567 | 0.511 | 0.483 | 0.534
ABC-1 | 1.02 | 0.962 | 0.764 | 0.782 | 0.551 | 0.947 | 0.949 | 0.884 | 0.879 | 0.254 | 0.214 | 0.195 | 0.209 | 0.78 | 1.04 | 1.08 | 1.11
HCC-44 | 1.03 | 0.975 | 0.991 | 0.612 | 0.644 | 0.967 | 1.01 | 0.989 | 0.723 | 0.215 | 0.151 | 0.154 | 0.0888 | 1.07 | 1.1 | 1.12 | 1.07
HCC-78 | 0.867 | 0.854 | 0.586 | 0.219 | 0.376 | 0.945 | 0.919 | 1.02 | 0.638 | 0.587 | 0.705 | 0.427 | 0.312 | 0.439 | 0.504 | 0.408 | 0.398
LXF-289 | 0.996 | 1.01 | 1.08 | 0.814 | 0.92 | 0.995 | 1.07 | 1.03 | 1.09 | 0.508 | 0.557 | 0.452 | 0.436 | 0.736 | 0.797 | 0.867 | 0.78
201T | 0.97 | 0.964 | 0.921 | 0.702 | 0.64 | 0.987 | 1.03 | 0.982 | 0.995 | 0.476 | 0.443 | 0.409 | 0.3 | 0.963 | 1.06 | 0.988 | 1.09
NCI-H1734 | 1.04 | 0.998 | 0.623 | 0.475 | 0.435 | 1.01 | 0.988 | 0.764 | 0.795 | 0.427 | 0.362 | 0.271 | 0.197 | 0.877 | 0.822 | 0.629 | 0.67
NCI-H1623 | 0.962 | 0.94 | 0.664 | – | 0.341 | 0.957 | 1.07 | 0.946 | 0.914 | 0.646 | 0.61 | 0.54 | 0.274 | – | – | – | –
NCI-H2126 | 0.999 | 0.992 | 0.806 | 0.52 | 0.57 | 1.04 | 1.03 | 0.913 | 0.92 | 0.49 | 0.501 | 0.38 | 0.31 | 0.718 | 0.789 | 0.608 | 0.623
LOU-NH91 | 1.02 | 0.987 | 0.874 | 0.538 | 0.681 | 0.983 | 0.999 | 1.02 | 0.875 | 0.773 | 0.812 | 0.609 | 0.461 | 0.938 | 0.933 | 0.887 | 0.826
NCI-H1792 | 0.762 | 1.1 | 0.618 | 0.31 | 0.236 | 0.941 | 0.869 | 0.971 | 0.677 | 0.343 | 0.257 | 0.128 | 0.124 | – | – | – | –
NCI-H1651 | 0.961 | 0.997 | 0.918 | 0.639 | 0.631 | 0.949 | 0.968 | 1.03 | 0.937 | 0.331 | 0.36 | 0.268 | 0.261 | 0.568 | 0.583 | 0.597 | 0.461
